{"source": "paper PMC7026418", "about": "“The kinase polypharmacology landscape of clinical PARP inhibitors” (Scientific Reports, 2020)", "assay_in_all_cases": "biochemical", "parameters_in_all_cases": "DiscoveRx KINOMEscan active site-directed competition binding; percent of control kinase bound to immobilised ligand", "key": {"EPHA1": {"molecular_target": "T1, EPHA1 (Homo sapiens, UniProt P21709)", "T1 sequence (P21709 1-976)": "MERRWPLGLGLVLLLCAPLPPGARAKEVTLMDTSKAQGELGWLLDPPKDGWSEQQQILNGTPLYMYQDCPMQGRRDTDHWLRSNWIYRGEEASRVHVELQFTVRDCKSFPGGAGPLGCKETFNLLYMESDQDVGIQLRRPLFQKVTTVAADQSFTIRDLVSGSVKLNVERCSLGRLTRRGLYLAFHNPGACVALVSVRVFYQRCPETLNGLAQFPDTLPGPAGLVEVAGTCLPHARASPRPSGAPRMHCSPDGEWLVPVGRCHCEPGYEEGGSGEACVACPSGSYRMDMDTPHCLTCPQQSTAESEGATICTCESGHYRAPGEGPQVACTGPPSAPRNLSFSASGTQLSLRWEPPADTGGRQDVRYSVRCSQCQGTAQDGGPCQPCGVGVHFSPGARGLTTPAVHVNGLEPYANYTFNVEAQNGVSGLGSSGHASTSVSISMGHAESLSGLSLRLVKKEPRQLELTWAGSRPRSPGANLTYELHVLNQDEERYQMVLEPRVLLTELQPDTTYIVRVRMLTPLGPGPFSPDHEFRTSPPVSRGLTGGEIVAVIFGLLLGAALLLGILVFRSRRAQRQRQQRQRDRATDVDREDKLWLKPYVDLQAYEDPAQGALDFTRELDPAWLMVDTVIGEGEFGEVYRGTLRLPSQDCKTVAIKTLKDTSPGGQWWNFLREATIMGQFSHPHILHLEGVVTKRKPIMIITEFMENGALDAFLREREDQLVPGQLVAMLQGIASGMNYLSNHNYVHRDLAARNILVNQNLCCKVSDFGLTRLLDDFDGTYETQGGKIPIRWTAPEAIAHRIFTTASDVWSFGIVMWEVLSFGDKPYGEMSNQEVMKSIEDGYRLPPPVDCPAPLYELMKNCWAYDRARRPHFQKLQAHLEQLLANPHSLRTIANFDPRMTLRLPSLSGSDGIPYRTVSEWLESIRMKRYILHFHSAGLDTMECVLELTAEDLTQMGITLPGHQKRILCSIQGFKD"}, "PIKFYVE": {"molecular_target": "PIKFYVE (Homo sapiens, UniProt Q9Y2I7)", "sequence (Q9Y2I7 whole entry)": "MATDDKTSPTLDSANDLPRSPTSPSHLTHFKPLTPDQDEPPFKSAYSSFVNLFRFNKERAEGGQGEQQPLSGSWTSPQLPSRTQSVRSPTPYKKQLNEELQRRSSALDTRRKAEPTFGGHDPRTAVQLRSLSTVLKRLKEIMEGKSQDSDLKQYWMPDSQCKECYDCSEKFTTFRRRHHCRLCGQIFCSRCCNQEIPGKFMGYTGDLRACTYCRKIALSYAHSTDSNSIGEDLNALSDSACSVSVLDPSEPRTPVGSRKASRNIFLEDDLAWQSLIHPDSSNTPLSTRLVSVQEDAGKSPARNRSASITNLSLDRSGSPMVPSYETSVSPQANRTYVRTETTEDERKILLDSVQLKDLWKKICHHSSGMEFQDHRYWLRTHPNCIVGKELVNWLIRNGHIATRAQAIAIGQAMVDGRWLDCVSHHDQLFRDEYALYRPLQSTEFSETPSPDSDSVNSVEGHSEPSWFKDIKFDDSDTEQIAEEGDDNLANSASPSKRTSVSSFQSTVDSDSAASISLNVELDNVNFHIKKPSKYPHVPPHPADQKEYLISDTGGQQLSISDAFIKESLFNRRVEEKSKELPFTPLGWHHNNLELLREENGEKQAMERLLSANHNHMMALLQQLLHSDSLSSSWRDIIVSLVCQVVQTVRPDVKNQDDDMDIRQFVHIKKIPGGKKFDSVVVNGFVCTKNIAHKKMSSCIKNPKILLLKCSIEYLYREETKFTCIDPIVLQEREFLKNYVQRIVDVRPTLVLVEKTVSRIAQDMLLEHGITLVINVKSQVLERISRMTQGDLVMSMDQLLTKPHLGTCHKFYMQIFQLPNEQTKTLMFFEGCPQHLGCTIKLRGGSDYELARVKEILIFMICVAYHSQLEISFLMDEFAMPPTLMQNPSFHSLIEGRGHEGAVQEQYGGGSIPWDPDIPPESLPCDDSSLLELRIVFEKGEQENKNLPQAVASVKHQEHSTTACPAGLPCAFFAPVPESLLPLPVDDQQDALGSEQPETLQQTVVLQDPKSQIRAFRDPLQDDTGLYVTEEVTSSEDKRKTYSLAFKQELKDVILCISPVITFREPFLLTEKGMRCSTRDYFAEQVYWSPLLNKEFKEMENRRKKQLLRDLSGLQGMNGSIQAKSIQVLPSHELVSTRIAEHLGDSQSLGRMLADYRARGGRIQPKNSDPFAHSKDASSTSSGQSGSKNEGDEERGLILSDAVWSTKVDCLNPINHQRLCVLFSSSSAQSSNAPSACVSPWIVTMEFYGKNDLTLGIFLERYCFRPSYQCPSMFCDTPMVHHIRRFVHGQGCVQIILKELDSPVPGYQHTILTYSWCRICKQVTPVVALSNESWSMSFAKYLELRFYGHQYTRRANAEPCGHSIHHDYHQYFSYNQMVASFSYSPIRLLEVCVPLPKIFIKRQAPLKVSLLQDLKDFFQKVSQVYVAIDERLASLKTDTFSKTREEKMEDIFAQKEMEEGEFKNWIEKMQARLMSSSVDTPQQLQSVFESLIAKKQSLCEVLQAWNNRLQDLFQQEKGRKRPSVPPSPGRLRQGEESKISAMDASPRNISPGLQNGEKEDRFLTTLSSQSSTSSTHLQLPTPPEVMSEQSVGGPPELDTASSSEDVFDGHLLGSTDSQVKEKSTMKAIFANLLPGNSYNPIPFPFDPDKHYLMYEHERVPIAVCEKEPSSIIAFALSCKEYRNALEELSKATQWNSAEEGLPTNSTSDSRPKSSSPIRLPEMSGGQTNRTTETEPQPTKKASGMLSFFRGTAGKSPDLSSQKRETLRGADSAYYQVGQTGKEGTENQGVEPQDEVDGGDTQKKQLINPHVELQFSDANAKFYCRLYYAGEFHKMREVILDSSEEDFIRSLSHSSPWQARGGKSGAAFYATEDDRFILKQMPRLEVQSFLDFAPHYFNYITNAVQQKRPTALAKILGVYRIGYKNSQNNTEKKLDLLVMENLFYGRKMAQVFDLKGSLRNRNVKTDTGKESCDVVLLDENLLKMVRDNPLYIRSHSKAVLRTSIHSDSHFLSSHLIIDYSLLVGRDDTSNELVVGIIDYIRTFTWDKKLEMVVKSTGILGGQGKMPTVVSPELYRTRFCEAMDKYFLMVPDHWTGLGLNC"}, "[1]": {"molecular_target": "T2, ABL1(Y253F)-phosphorylated (Homo sapiens, UniProt P00519, Y253F)", "T2 construct": "phosphorylated"}, "AURKA": {"molecular_target": "T3, AURKA (Homo sapiens, UniProt O14965)", "T3 sequence (O14965 1-403)": "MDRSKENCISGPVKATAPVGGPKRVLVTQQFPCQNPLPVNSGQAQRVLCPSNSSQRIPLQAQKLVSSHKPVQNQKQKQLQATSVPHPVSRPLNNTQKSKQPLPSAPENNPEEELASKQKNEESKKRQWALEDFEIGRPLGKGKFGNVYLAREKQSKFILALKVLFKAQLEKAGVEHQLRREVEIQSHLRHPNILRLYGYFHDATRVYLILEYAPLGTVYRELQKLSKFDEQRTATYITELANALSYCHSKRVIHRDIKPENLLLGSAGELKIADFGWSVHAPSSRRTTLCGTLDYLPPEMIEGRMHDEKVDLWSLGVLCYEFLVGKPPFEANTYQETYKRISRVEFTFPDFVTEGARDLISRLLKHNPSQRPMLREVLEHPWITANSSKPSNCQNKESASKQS"}, "SRPK1": {"molecular_target": "SRPK1 (Homo sapiens, UniProt Q96SB4)", "sequence (Q96SB4 whole entry)": "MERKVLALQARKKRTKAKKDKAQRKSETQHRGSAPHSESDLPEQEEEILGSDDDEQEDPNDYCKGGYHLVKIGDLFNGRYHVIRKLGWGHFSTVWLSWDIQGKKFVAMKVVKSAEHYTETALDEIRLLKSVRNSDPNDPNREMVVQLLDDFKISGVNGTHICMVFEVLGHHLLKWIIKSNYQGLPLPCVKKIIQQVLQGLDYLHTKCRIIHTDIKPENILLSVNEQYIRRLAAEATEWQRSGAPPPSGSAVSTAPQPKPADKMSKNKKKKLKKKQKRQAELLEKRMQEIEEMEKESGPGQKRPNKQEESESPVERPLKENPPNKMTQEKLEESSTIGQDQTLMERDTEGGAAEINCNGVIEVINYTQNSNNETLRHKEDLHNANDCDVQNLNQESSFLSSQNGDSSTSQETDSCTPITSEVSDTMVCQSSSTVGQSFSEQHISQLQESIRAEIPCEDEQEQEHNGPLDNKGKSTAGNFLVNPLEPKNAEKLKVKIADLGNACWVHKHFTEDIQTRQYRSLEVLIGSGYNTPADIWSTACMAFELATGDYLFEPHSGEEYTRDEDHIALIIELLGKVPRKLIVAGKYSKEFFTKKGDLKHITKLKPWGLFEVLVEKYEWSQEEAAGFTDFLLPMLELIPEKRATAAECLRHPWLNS"}, "TXK": {"molecular_target": "T4, TXK (Homo sapiens, UniProt P42681)", "T4 sequence (P42681 1-527)": "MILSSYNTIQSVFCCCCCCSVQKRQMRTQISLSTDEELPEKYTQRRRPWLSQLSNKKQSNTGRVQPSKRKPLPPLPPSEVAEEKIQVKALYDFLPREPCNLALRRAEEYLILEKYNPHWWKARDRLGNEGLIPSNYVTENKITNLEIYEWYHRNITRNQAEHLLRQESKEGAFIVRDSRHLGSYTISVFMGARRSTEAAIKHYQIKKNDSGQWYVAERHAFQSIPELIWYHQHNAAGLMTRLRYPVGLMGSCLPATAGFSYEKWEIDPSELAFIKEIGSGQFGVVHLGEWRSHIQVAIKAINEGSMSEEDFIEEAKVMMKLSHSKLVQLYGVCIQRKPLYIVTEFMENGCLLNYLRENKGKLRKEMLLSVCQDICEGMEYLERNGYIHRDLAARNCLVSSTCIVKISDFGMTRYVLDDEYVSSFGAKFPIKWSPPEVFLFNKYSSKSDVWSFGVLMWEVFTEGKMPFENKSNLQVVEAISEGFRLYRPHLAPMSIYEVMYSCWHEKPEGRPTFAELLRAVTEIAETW"}, "MARK3": {"molecular_target": "MARK3 (Homo sapiens, UniProt P27448)", "sequence (P27448 whole entry)": "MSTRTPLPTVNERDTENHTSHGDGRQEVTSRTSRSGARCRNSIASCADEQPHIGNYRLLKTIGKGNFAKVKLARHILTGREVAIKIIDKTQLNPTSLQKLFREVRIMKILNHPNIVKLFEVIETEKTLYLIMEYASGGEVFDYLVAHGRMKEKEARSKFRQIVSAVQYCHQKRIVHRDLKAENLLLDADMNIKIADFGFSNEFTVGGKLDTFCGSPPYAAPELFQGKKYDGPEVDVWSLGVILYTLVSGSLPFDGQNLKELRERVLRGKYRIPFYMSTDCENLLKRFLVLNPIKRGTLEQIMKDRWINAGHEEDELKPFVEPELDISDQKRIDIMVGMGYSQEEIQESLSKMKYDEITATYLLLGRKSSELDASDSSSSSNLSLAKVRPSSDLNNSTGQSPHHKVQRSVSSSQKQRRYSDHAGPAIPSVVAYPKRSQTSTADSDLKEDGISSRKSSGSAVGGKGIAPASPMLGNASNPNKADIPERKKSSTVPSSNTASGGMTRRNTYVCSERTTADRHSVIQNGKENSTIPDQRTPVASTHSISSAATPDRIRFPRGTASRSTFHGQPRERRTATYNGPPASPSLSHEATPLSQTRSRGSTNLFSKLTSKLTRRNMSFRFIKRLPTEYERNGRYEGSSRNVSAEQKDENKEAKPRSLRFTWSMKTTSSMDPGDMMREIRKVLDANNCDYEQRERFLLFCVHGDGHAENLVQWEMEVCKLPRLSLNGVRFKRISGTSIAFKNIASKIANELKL"}, "EGFR(L858R,T790M)": {"molecular_target": "EGFR(L858R,T790M) (Homo sapiens, UniProt P00533, L858R/T790M)", "sequence (P00533 whole entry T790M/L858R)": "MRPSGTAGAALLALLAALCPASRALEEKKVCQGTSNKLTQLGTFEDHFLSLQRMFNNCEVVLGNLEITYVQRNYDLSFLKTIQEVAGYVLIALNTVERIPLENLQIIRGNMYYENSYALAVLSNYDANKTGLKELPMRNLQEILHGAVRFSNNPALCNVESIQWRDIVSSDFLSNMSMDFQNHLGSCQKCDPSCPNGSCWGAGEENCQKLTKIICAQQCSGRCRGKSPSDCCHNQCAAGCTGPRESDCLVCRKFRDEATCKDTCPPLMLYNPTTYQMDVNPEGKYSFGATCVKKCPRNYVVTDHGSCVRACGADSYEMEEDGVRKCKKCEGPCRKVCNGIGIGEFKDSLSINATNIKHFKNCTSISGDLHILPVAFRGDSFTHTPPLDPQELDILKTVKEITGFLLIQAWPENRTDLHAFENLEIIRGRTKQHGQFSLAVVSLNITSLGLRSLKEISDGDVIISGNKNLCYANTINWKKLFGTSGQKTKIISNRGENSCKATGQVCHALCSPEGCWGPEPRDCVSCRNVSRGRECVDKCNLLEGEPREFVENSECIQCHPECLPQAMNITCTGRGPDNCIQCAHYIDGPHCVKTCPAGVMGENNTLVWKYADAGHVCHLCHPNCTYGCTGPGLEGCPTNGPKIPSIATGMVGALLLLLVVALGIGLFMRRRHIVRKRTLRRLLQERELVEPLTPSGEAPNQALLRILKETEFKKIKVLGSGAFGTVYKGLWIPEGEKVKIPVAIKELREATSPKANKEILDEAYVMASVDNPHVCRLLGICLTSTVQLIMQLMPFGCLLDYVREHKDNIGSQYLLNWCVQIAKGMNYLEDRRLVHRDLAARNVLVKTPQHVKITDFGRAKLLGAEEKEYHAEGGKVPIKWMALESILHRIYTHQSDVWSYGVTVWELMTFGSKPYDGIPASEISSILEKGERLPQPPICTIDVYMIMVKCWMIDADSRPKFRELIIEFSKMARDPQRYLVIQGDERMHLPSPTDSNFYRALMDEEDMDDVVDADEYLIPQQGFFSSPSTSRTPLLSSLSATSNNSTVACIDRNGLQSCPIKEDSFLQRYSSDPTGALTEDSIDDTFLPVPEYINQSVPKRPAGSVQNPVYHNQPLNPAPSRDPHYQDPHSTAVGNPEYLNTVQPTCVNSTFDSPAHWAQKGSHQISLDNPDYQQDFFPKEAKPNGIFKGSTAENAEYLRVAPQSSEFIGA"}, "[2]": {"settings": "read-out: Talazoparib (BMN 673) / %Ctrl @ 10000nM"}, "[3]": {"settings": "read-out: Olaparib / %Ctrl @ 10000nM"}, "[4]": {"settings": "read-out: Rucaparib / %Ctrl @ 10000nM, binding competition, % of control"}, "[5]": {"settings": "read-out: Niraparib (MK-4827) / %Ctrl @ 10000nM"}}, "note": "Like-named read-outs stand apart in the source and are kept apart here."}
{"smiles": "Cn1ncnc1[C@H]1c2n[nH]c(=O)c3cc(F)cc(c23)N[C@@H]1c1ccc(F)cc1", "note": "[Talazoparib]", "values": [{"measurement": "percent of control binding at 10 µM", "setting": "EPHA1; [2]", "result": 98, "unit": "%"}, {"measurement": "percent of control binding at 10 µM", "setting": "PIKFYVE; [2]", "result": 80, "unit": "%"}, {"measurement": "percent of control binding at 10 µM", "setting": "[1]; [2]", "result": 100, "unit": "%"}, {"measurement": "percent of control binding at 10 µM", "setting": "AURKA; [2]", "result": 84, "unit": "%"}, {"measurement": "percent of control binding at 10 µM", "setting": "SRPK1; [2]", "result": 100, "unit": "%"}, {"measurement": "percent of control binding at 10 µM", "setting": "TXK; [2]", "result": 91, "unit": "%"}, {"measurement": "percent of control binding at 10 µM", "setting": "MARK3; [2]", "result": 98, "unit": "%"}, {"measurement": "percent of control binding at 10 µM", "setting": "EGFR(L858R,T790M); [2]", "result": 100, "unit": "%"}]}
{"smiles": "O=C(c1cc(Cc2n[nH]c(=O)c3ccccc23)ccc1F)N1CCN(C(=O)C2CC2)CC1", "note": "[Olaparib]", "values": [{"measurement": "percent of control binding at 10 µM", "setting": "EPHA1; [3]", "result": 92, "unit": "%"}, {"measurement": "percent of control binding at 10 µM", "setting": "PIKFYVE; [3]", "result": 100, "unit": "%"}, {"measurement": "percent of control binding at 10 µM", "setting": "[1]; [3]", "result": 79, "unit": "%"}, {"measurement": "percent of control binding at 10 µM", "setting": "AURKA; [3]", "result": 91, "unit": "%"}, {"measurement": "percent of control binding at 10 µM", "setting": "SRPK1; [3]", "result": 98, "unit": "%"}, {"measurement": "percent of control binding at 10 µM", "setting": "TXK; [3]", "result": 86, "unit": "%"}, {"measurement": "percent of control binding at 10 µM", "setting": "MARK3; [3]", "result": 96, "unit": "%"}, {"measurement": "percent of control binding at 10 µM", "setting": "EGFR(L858R,T790M); [3]", "result": 93, "unit": "%"}]}
{"smiles": "CNCc1ccc(-c2[nH]c3cc(F)cc4c3c2CCNC4=O)cc1", "note": "[Rucaparib]", "values": [{"measurement": "percent of control binding at 10 µM", "setting": "EPHA1; [4]", "result": 99, "unit": "%"}, {"measurement": "percent of control binding at 10 µM", "setting": "PIKFYVE; [4]", "result": 92, "unit": "%"}, {"measurement": "percent of control binding at 10 µM", "setting": "[1]; [4]", "result": 69, "unit": "%"}, {"measurement": "percent of control binding at 10 µM", "setting": "AURKA; [4]", "result": 75, "unit": "%"}, {"measurement": "percent of control binding at 10 µM", "setting": "SRPK1; [4]", "result": 97, "unit": "%"}, {"measurement": "percent of control binding at 10 µM", "setting": "TXK; [4]", "result": 100, "unit": "%"}, {"measurement": "percent of control binding at 10 µM", "setting": "MARK3; [4]", "result": 100, "unit": "%"}, {"measurement": "percent of control binding at 10 µM", "setting": "EGFR(L858R,T790M); [4]", "result": 70, "unit": "%"}]}
{"smiles": "NC(=O)c1cccc2cn(-c3ccc([C@@H]4CCCNC4)cc3)nc12", "note": "[Niraparib]", "values": [{"measurement": "percent of control binding at 10 µM", "setting": "EPHA1; [5]", "result": 86, "unit": "%"}, {"measurement": "percent of control binding at 10 µM", "setting": "PIKFYVE; [5]", "result": 75, "unit": "%"}, {"measurement": "percent of control binding at 10 µM", "setting": "[1]; [5]", "result": 57, "unit": "%"}, {"measurement": "percent of control binding at 10 µM", "setting": "AURKA; [5]", "result": 25, "unit": "%"}, {"measurement": "percent of control binding at 10 µM", "setting": "SRPK1; [5]", "result": 77, "unit": "%"}, {"measurement": "percent of control binding at 10 µM", "setting": "TXK; [5]", "result": 86, "unit": "%"}, {"measurement": "percent of control binding at 10 µM", "setting": "MARK3; [5]", "result": 91, "unit": "%"}, {"measurement": "percent of control binding at 10 µM", "setting": "EGFR(L858R,T790M); [5]", "result": 100, "unit": "%"}]}
